Test results published in patent US20250311727A1, “SUBSTITUTED 2-AMINOAZINES AND SALTS THEREOF, AND USE THEREOF AS HERBICIDAL ACTIVE SUBSTANCES” (BAYER AKTIENGESELLSCHAFT, priority 2022, published 2025).

Legend:
Format in all cases: in vivo
Poa annua [1] = experiment: Pre-emergence herbicide efficacy at 320 g/ha, POAAN; conditions: scored visually after about 3 weeks vs untreated controls, 100% = plants have died
Text: (§1) Unwanted plants/weeds: • ABUTH: Abutilon theophrasti • ALOMY: Alopecurus myosuroides • AMARE: Amaranthus retroflexus • DIGSA: Digitaria sanguinalis • ECHCG: Echinochloa crus-galli • KCHSC: Kochia scoparia • LOLRI: Lolium rigidum • MATIN: Matricaria inodora • POAAN: Poa annua • POLCO: Polygonum convolvulus • SETVI: Setaria viridis • STEME: Stellaria media • VERPE: Veronica persica • VIOTR: Viola tricolor A. Post-Emergence Herbicidal Efficacy at 320 g/ha
(§2) Seeds of mono- and dicotyledonous weed plants were placed in plastic pots in sandy loam soil (doubly sown with one species each of mono- or dicotyledonous weed plants per pot) and covered with soil. The compounds of the invention, formulated in the form of wettable powders (WP) or as emulsion concentrates (EC), were then applied to the surface of the covering soil as aqueous suspension or emulsion with addition of 0.5% additive at a water application rate of 600 litres per hectare (converted). After the treatment, the pots were placed in a greenhouse and kept under good growth conditions for the test plants. After about 3 weeks, the efficacy of the preparations was scored visually in comparison with untreated controls as percentages.
(§3) For example, 100% activity=the plants have died, 0% activity=like control plants.
(§4) Tables C1 to C12 below show the effects of selected compounds of the general formula (I) according to Table 1 on various harmful plants and at an application rate corresponding to 320 g/ha, which were obtained by the trial procedure specified above.

Echinochloa crus-galli [2] = experiment: Pre-emergence herbicide efficacy at 320 g/ha, ECHCG; conditions: scored visually after about 3 weeks vs untreated controls, 100% = plants have died
Text: as §1, §2, §3, §4

Digitaria sanguinalis [3] = experiment: Pre-emergence herbicide efficacy at 320 g/ha, DIGSA; conditions: scored visually after about 3 weeks vs untreated controls, 100% = plants have died
Summary of the method: (§5)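 Visual percent activity versus untreated controls, read about 3 weeks after treatment, where 100% means dead plants and 0% means control-like growth. Compound (WP or EC, 0.5% additive, 600 L/ha water) was sprayed onto the covering soil over freshly sown weed seeds in sandy loam, then kept in a greenhouse.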

Poa annua [4] = experiment: Post-emergence herbicidal efficacy at 320 g/ha, POAAN; conditions: rated visually after about 3 weeks vs untreated controls, 100% = plants have died
Text: as §1
(§6) Seeds of mono- and dicotyledonous weed plants were placed in plastic pots in sandy loam soil (doubly sown with in each case one species of mono- or dicotyledonous weed plants per pot), covered with soil and cultivated in a greenhouse under controlled growth conditions. 2 to 3 weeks after sowing, the test plants were treated at the one-leaf stage. The compounds of the invention, formulated in the form of wettable powders (WP) or as emulsion concentrates (EC), were applied to the green parts of the plants as aqueous suspension or emulsion with addition of 0.5% additive at a water application rate equivalent to 600 litres per hectare. After the test plants had been kept in the greenhouse under optimum growth conditions for about 3 weeks, the activity of the preparations was rated visually in comparison to untreated controls.
as §3
(§7) Tables A1 to A10 below show the effects of selected compounds of the general formula (I) according to Table 1 on various harmful plants and at an application rate corresponding to 320 g/ha, which were obtained by the trial procedure specified above.

Echinochloa crus-galli [5] = experiment: Post-emergence herbicidal efficacy at 320 g/ha, ECHCG; conditions: rated visually after about 3 weeks vs untreated controls, 100% = plants have died
Text: as §1, §6, §3, §7

Amaranthus retroflexus [6] = experiment: Pre-emergence herbicide efficacy at 320 g/ha, AMARE; conditions: scored visually after about 3 weeks vs untreated controls, 100% = plants have died
Summary of the method: as §5

Veronica persica [7] = experiment: Post-emergence herbicidal efficacy at 80 g/ha, VERPE; conditions: rated visually after about 3 weeks vs untreated controls, 100% = plants have died
Text: as §1
(§8) Seeds of monocotyledonous and dicotyledonous weeds and crop plants were placed in sandy loam in plastic or organic planting pots, covered with soil and cultivated in a greenhouse under controlled growth conditions. 2 to 3 weeks after sowing, the test plants were treated at the one-leaf stage. The compounds of the invention, formulated in the form of wettable powders (WP) or as emulsion concentrates (EC), were then sprayed onto the green parts of the plants as aqueous suspension or emulsion with addition of 0.5% additive at a water application rate of 600 l/ha (converted). After the test plants had been kept in the greenhouse under optimum growth conditions for about 3 weeks, the activity of the preparations was rated visually in comparison to untreated controls. For example, 100% activity=the plants have died, 0% activity=like control plants.
(§9) Tables B1 to B11 below show the effects of selected compounds of the general formula (I) according to Table 1 on various harmful plants and an application rate corresponding to 80 g/ha, which were obtained by the experimental procedure mentioned above.

Setaria viridis [8] = experiment: Pre-emergence herbicide efficacy at 80 g/ha, SETVI
Text: as §1
(§10) Seeds of monocotyledonous and dicotyledonous weed plants and crop plants were placed in plastic or organic planting pots and covered with soil. The compounds of the invention, formulated in the form of wettable powders (WP) or as emulsion concentrates (EC), were then applied to the surface of the covering soil as aqueous suspension or emulsion with addition of 0.5% additive at a water application rate equivalent to 600 l/ha. After the treatment, the pots were placed in a greenhouse and kept under good growth conditions for the test plants. After about 3 weeks, the efficacy of the preparations was scored visually in comparison with untreated controls as percentages. For example, 100% activity=the plants have died, 0% activity=like control plants.
(§11) Tables D1 to D12 below show the effects of selected compounds of the general formula (I) according to Table 1 on various harmful plants and an application rate corresponding to 80 g/ha, which were obtained by the experimental procedure mentioned above.

Kochia scoparia [9] = experiment: Post-emergence herbicidal efficacy at 80 g/ha, KCHSC; conditions: rated visually after about 3 weeks vs untreated controls, 100% = plants have died
Text: as §1, §8, §9

Abutilon theophrasti [10] = experiment: Pre-emergence herbicide efficacy at 320 g/ha, ABUTH; conditions: scored visually after about 3 weeks vs untreated controls, 100% = plants have died
Text: as §1, §2, §3, §4

Viola tricolor [11] = experiment: Post-emergence herbicidal efficacy at 80 g/ha, VIOTR; conditions: rated visually after about 3 weeks vs untreated controls, 100% = plants have died
Text: as §1, §8, §9

Veronica persica [12] = experiment: Pre-emergence herbicide efficacy at 80 g/ha, VERPE
Text: as §1, §10, §11

Setaria viridis [13] = experiment: Pre-emergence herbicide efficacy at 320 g/ha, SETVI; conditions: scored visually after about 3 weeks vs untreated controls, 100% = plants have died
Summary of the method: as §5

Abutilon theophrasti [14] = experiment: Pre-emergence herbicide efficacy at 80 g/ha, ABUTH; conditions: scored visually after about 3 weeks vs untreated controls, 100% = plants have died
Text: as §1, §10, §11

Veronica persica [15] = experiment: Pre-emergence herbicide efficacy at 320 g/ha, VERPE; conditions: scored visually after about 3 weeks vs untreated controls, 100% = plants have died
Summary of the method: as §5

Amaranthus retroflexus [16] = experiment: Post-emergence herbicidal efficacy at 80 g/ha, AMARE; conditions: rated visually after about 3 weeks vs untreated controls, 100% = plants have died
Text: as §1, §8, §9

Abutilon theophrasti [17] = experiment: Post-emergence herbicidal efficacy at 320 g/ha, ABUTH; conditions: rated visually after about 3 weeks vs untreated controls, 100% = plants have died
Summary of the method: (§12)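 Weeds grown in sandy loam in a greenhouse, both monocot and dicot species, and sprayed post-emergence at the one-leaf stage, 2–3 weeks after sowing. Spray was a WP or EC formulation with 0.5% additive in 600 L/ha water. Efficacy rated visually after about 3 weeks against untreated controls (0% = like control, 100% = plants dead).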

Setaria viridis [18] = experiment: Post-emergence herbicidal efficacy at 320 g/ha, SETVI; conditions: rated visually after about 3 weeks vs untreated controls, 100% = plants have died
Text: as §1, §6, §3, §7

Echinochloa crus-galli [19] = experiment: Pre-emergence herbicide efficacy at 80 g/ha, ECHCG; conditions: scored visually after about 3 weeks vs untreated controls, 100% = plants have died
Text: as §1, §10, §11

Digitaria sanguinalis [20] = experiment: Post-emergence herbicidal efficacy at 320 g/ha, DIGSA; conditions: rated visually after about 3 weeks vs untreated controls, 100% = plants have died
Text: as §1, §6, §3, §7

Stellaria media [21] = experiment: Pre-emergence herbicide efficacy at 320 g/ha, STEME; conditions: scored visually after about 3 weeks vs untreated controls, 100% = plants have died
Summary of the method: as §5

Veronica persica [22] = experiment: Post-emergence herbicidal efficacy at 320 g/ha, VERPE; conditions: rated visually after about 3 weeks vs untreated controls, 100% = plants have died
Summary of the method: as §12

Amaranthus retroflexus [23] = experiment: Post-emergence herbicidal efficacy at 320 g/ha, AMARE; conditions: rated visually after about 3 weeks vs untreated controls, 100% = plants have died
Summary of the method: as §12

Digitaria sanguinalis [24] = experiment: Pre-emergence herbicide efficacy at 80 g/ha, DIGSA; conditions: scored visually after about 3 weeks vs untreated controls, 100% = plants have died
Text: as §1, §10, §11

Viola tricolor [25] = experiment: Pre-emergence herbicide efficacy at 80 g/ha, VIOTR
Text: as §1, §10, §11

Polygonum convolvulus = experiment: Pre-emergence herbicide efficacy at 80 g/ha, POLCO; conditions: scored visually after about 3 weeks vs untreated controls, 100% = plants have died
Text: as §1, §10, §11

Amaranthus retroflexus [26] = experiment: Pre-emergence herbicide efficacy at 80 g/ha, AMARE; conditions: scored visually after about 3 weeks vs untreated controls, 100% = plants have died
Text: as §1, §10, §11

Kochia scoparia [27] = experiment: Post-emergence herbicidal efficacy at 320 g/ha, KCHSC; conditions: rated visually after about 3 weeks vs untreated controls, 100% = plants have died
Summary of the method: as §12

Kochia scoparia [28] = experiment: Pre-emergence herbicide efficacy at 320 g/ha, KCHSC; conditions: scored visually after about 3 weeks vs untreated controls, 100% = plants have died
Summary of the method: as §5

Matricaria inodora [29] = experiment: Pre-emergence herbicide efficacy at 80 g/ha, MATIN; conditions: scored visually after about 3 weeks vs untreated controls, 100% = plants have died
Text: as §1, §10, §11

Kochia scoparia [30] = experiment: Pre-emergence herbicide efficacy at 80 g/ha, KCHSC; conditions: scored visually after about 3 weeks vs untreated controls, 100% = plants have died
Text: as §1, §10, §11

Stellaria media [31] = experiment: Post-emergence herbicidal efficacy at 320 g/ha, STEME; conditions: rated visually after about 3 weeks vs untreated controls, 100% = plants have died
Summary of the method: as §12

Matricaria inodora [32] = experiment: Pre-emergence herbicide efficacy at 320 g/ha, MATIN; conditions: scored visually after about 3 weeks vs untreated controls, 100% = plants have died
Text: as §1, §2, §3, §4

Cc1cnn(-c2c(C#N)cccc2Nc2ncc(Cl)cn2)c1 [Example 1-66]
90%: Post-emergence efficacy at 80 g/ha against VERPE in % (Veronica persica [7]) | Pre-emergence efficacy against SETVI (Setaria viridis [8]) | Post-emergence efficacy at 80 g/ha against VIOTR in % (Viola tricolor [11]) | Post-emergence efficacy at 320 g/ha against SETVI in % (Setaria viridis [18]) | Pre-emergence efficacy at 80 g/ha against ECHCG in % (Echinochloa crus-galli [19]) | Post-emergence efficacy at 320 g/ha against DIGSA in % (Digitaria sanguinalis [20]) | Pre-emergence efficacy at 320 g/ha against MATIN in % (Matricaria inodora [32])
80%: Post-emergence efficacy at 80 g/ha against KCHSC in % (Kochia scoparia [9]) | Pre-emergence efficacy at 80 g/ha against ABUTH in % (Abutilon theophrasti [14]) | Pre-emergence efficacy at 80 g/ha against POLCO in % (Polygonum convolvulus)
100%: Pre-emergence efficacy at 320 g/ha against POAAN in % (Poa annua [1]) | Pre-emergence efficacy at 320 g/ha against ECHCG in % (Echinochloa crus-galli [2]) | Pre-emergence efficacy at 320 g/ha against DIGSA in % (Digitaria sanguinalis [3]) | Post-emergence efficacy at 320 g/ha against POAAN in % (Poa annua [4]) | Post-emergence efficacy at 320 g/ha against ECHCG in % (Echinochloa crus-galli [5]) | Pre-emergence efficacy at 320 g/ha against AMARE in % (Amaranthus retroflexus [6]) | Pre-emergence efficacy at 320 g/ha against ABUTH in % (Abutilon theophrasti [10]) | Pre-emergence efficacy against VERPE (Veronica persica [12]) | Pre-emergence efficacy at 320 g/ha against SETVI in % (Setaria viridis [13]) | Pre-emergence efficacy at 320 g/ha against VERPE in % (Veronica persica [15]) | Post-emergence efficacy at 80 g/ha against AMARE in % (Amaranthus retroflexus [16]) | Post-emergence efficacy at 320 g/ha against ABUTH in % (Abutilon theophrasti [17]) | Pre-emergence efficacy at 320 g/ha against STEME in % (Stellaria media [21]) | Post-emergence efficacy at 320 g/ha against VERPE in % (Veronica persica [22]) | Post-emergence efficacy at 320 g/ha against AMARE in % (Amaranthus retroflexus [23]) | Pre-emergence efficacy at 80 g/ha against DIGSA in % (Digitaria sanguinalis [24]) | Pre-emergence efficacy against VIOTR (Viola tricolor [25]) | Pre-emergence efficacy at 80 g/ha against AMARE in % (Amaranthus retroflexus [26]) | Post-emergence efficacy at 320 g/ha against KCHSC in % (Kochia scoparia [27]) | Pre-emergence efficacy at 320 g/ha against KCHSC in % (Kochia scoparia [28]) | Pre-emergence efficacy at 80 g/ha against MATIN in % (Matricaria inodora [29]) | Pre-emergence efficacy at 80 g/ha against KCHSC in % (Kochia scoparia [30]) | Post-emergence efficacy at 320 g/ha against STEME in % (Stellaria media [31])
